Results published in the supplement of paper PMC10307832.

What was measured:
Experiment in all cases: relative viability (nuclei count vs DMSO), 5 days (fraction); higher = more cells survive
Cabozantinib + Olaparib = compound: COc1cc2nccc(Oc3ccc(NC(=O)C4(C(=O)Nc5ccc(F)cc5)CC4)cc3)c2cc1OC [Cabozantinib] + O=C(c1cc(Cc2n[nH]c(=O)c3ccccc23)ccc1F)N1CCN(C(=O)C2CC2)CC1 [Olaparib] (partner 8 µM)
Summary of the method: (§1)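 A single step with final 0.05% Triton X-100, 1% formaldehyde and 1 ug/ml Hoechst fixed the cells and stained nuclei 5 days after treatment. Lung cancer cell lines in 1536-well plates had been treated by pin tool the day after seeding with one drug alone or a fixed anchor-drug dose plus five library-drug doses (not always all listed) in √10 steps, and nuclei were counted on 4× images. Relative viability is the ratio of nuclei in treated wells to nuclei in vehicle wells, taken as the median of duplicate plates.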

Zosuquidar + Decitabine = compound: O[C@@H](COc1cccc2ncccc12)CN1CCN([C@@H]2c3ccccc3[C@@H]3[C@H](c4ccccc42)C3(F)F)CC1 [Zosuquidar] + Nc1ncn([C@H]2C[C@H](O)[C@@H](CO)O2)c(=O)n1 [Decitabine] (partner 2 µM)
Summary of the method: as §1

Zosuquidar + Lapatinib = compound: O[C@@H](COc1cccc2ncccc12)CN1CCN([C@@H]2c3ccccc3[C@@H]3[C@H](c4ccccc42)C3(F)F)CC1 [Zosuquidar] + CS(=O)(=O)CCNCc1ccc(-c2ccc3ncnc(Nc4ccc(OCc5cccc(F)c5)c(Cl)c4)c3c2)o1 [Lapatinib] (partner 2 µM)
Summary of the method: as §1

[1] = compound: COc1cc2nccc(Oc3ccc(NC(=O)C4(C(=O)Nc5ccc(F)cc5)CC4)cc3)c2cc1OC [Cabozantinib] + CCNC(=O)c1noc(-c2cc(C(C)C)c(O)cc2O)c1-c1ccc(CN2CCOCC2)cc1 [Luminespib] (partner 0.01 µM)
Summary of the method: as §1

Row | Cell Line | relative viability (Cabozantinib + Olaparib; first compound 0.02 µM) | relative viability (Cabozantinib + Olaparib; first compound 0.06325 µM) | relative viability (Cabozantinib + Olaparib; first compound 0.2 µM) | relative viability (Cabozantinib + Olaparib; first compound 0.6325 µM) | relative viability (Cabozantinib + Olaparib; first compound 2 µM) | relative viability (Zosuquidar + Decitabine; first compound 0.01 µM) | relative viability (Zosuquidar + Decitabine; first compound 0.03162 µM) | relative viability (Zosuquidar + Decitabine; first compound 0.1 µM) | relative viability (Zosuquidar + Decitabine; first compound 0.3162 µM) | relative viability (Zosuquidar + Decitabine; first compound 1 µM) | relative viability (Zosuquidar + Lapatinib; first compound 0.01 µM) | relative viability (Zosuquidar + Lapatinib; first compound 0.03162 µM) | relative viability (Zosuquidar + Lapatinib; first compound 0.1 µM) | relative viability (Zosuquidar + Lapatinib; first compound 0.3162 µM) | relative viability (Zosuquidar + Lapatinib; first compound 1 µM) | relative viability ([1]; first compound 0.02 µM) | relative viability ([1]; first compound 0.06325 µM) | relative viability ([1]; first compound 0.2 µM) | relative viability ([1]; first compound 0.6325 µM) | relative viability ([1]; first compound 2 µM)
1 | NCI-H1666 | 0.821 | 0.802 | 0.719 | 0.715 | 0.732 | 0.766 | 0.788 | 0.671 | 0.789 | 0.678 | 0.534 | 0.713 | 0.875 | 0.754 | 0.579 | 0.968 | 1 | 1.02 | 1.04 | 1.06
2 | NCI-H1734 | 0.67 | 0.646 | 0.711 | 0.635 | 0.584 | 0.522 | 0.537 | 0.525 | 0.456 | 0.565 | 1.03 | 1.02 | 1.1 | 1.07 | 1.13 | 0.186 | 0.206 | 0.22 | 0.203 | 0.186
3 | NCI-H1755 | 0.868 | 0.898 | 0.872 | 0.785 | 0.79 | 0.672 | 0.663 | 0.716 | 0.728 | 0.708 | 1 | 0.946 | 0.951 | 1.04 | 1.08 | 0.33 | 0.419 | 0.54 | 0.344 | 0.403
4 | NCI-H1792 |  | 0.56 | 0.419 | 0.317 | 0.373 | 0.545 | 0.532 | 0.603 | 0.584 | 0.556 | 0.9 | 0.893 | 0.837 | 0.839 | 0.795 |  | 0.404 | 0.501 | 0.334 | 0.325
5 | NCI-H1793 | 1.01 | 0.899 |  | 0.756 | 0.599 | 0.536 |  |  | 0.648 | 0.488 | 0.916 | 0.625 |  | 0.835 | 1.11 | 0.591 | 0.168 | 0.144 | 0.202 | 0.155
6 | NCI-H1915 | 0.296 | 0.28 | 0.283 | 0.239 | 0.255 | 0.278 | 0.252 | 0.279 | 0.288 | 0.269 | 0.988 | 0.996 | 0.953 | 1.05 | 1.01 | 0.915 | 0.978 | 0.779 | 0.871 | 0.776
7 | NCI-H1944 | 0.426 | 0.413 | 0.404 | 0.401 | 0.52 | 0.365 | 0.454 | 0.469 | 0.453 | 0.439 | 0.822 | 0.797 | 0.585 | 0.925 | 0.794 | 0.739 | 0.818 | 0.754 | 0.719 | 0.762
8 | NCI-H1975 | 0.881 | 0.916 | 0.892 | 0.786 | 0.679 | 0.4 | 0.402 | 0.423 | 0.411 | 0.547 | 0.796 | 0.7 | 0.945 | 0.991 | 0.858 | 0.221 | 0.258 | 0.233 | 0.219 | 0.212
9 | NCI-H1993 | 1.03 | 0.975 | 0.75 | 0.785 | 0.981 | 0.609 | 0.615 |  | 0.583 | 0.546 | 0.965 | 0.908 | 0.751 | 1.04 | 0.79 | 0.787 | 0.738 | 0.667 | 0.828 | 0.73
10 | NCI-H2009 | 0.718 | 0.71 | 0.703 | 0.712 | 0.762 | 0.348 | 0.338 | 0.376 | 0.327 | 0.344 | 0.931 | 0.905 | 0.891 | 1.09 | 0.849 | 1.13 | 1.1 | 1 | 1.1 | 1.14
11 | NCI-H2023 | 0.483 | 0.545 | 0.383 | 0.429 | 0.433 | 0.195 | 0.281 | 0.235 | 0.246 | 0.268 | 0.848 | 0.856 | 0.712 | 1.45 | 0.955 | 0.839 | 0.68 | 0.635 | 0.641 | 0.539
12 | NCI-H2085 | 0.842 | 0.805 | 0.786 | 0.781 | 0.776 | 0.556 | 0.586 |  | 0.653 | 0.55 | 0.796 | 0.754 | 0.475 | 0.826 | 0.778 | 0.472 | 0.498 | 0.464 | 0.467 | 0.432
13 | NCI-H2087 | 0.702 | 0.643 | 0.622 | 0.523 | 0.605 | 0.262 | 0.3 | 0.305 | 0.206 | 0.33 | 0.931 | 0.776 | 1.06 | 1.19 | 1.19 | 0.163 | 0.185 | 0.193 | 0.168 | 0.158
14 | NCI-H2126 | 0.937 | 0.932 | 0.865 | 0.938 | 0.946 | 0.571 | 0.592 | 0.624 | 0.627 | 0.538 | 0.75 | 0.753 | 0.639 | 0.755 | 0.733 | 0.871 | 0.973 | 0.969 | 0.89 | 1.1
15 | NCI-H2170 | 0.66 | 0.682 | 0.538 | 0.576 | 0.684 | 0.451 | 0.476 | 0.482 | 0.466 | 0.512 | 0.256 | 0.282 | 0.256 | 0.308 | 0.283 | 0.729 | 0.952 | 0.587 | 0.857 | 0.849
16 | NCI-H2347 | 0.641 | 0.549 | 0.525 | 0.493 | 0.446 | 0.689 | 0.648 | 0.657 | 0.694 | 0.643 | 0.888 | 0.931 | 0.908 | 1.06 | 0.925 | 0.411 | 0.661 | 0.778 |  | 0.515
